Measured values as given in publication PMC10366102, “Dose escalation and expansion cohorts in patients with advanced breast cancer in a Phase I study of the CDK7-inhibitor samuraciclib” (Nature Communications, 2023).
Read-outs that look alike come from different tables or passages of the source.

Test system: patients with advanced/metastatic solid tumors
Details: for TEAE: Upper respiratory tract infection / TEAE: Urinary tract infection: Module 1A
Excerpt: In this Phase I study (ClinicalTrials.gov: NCT03363893), male and female patients with locally advanced/metastatic solid tumors received samuraciclib in dose escalation cohorts (at least 3 and up to 6 evaluable patients permitted per dose cohort) to determine the MTD (see Supplementary Information for definition). An additional 6 to 12 male or female patients with breast cancer were enrolled to a paired biopsy cohort to evaluate the pharmacodynamic effects of samuraciclib in tumor tissue, initiated after determining the minimally biologically active dose, defined by a 25-30% reduction in signal for pPolII in lymphocytes after 21 days of dosing or more.
For inclusion in the paired biopsy cohort, only patients with breast cancer with lesions amenable to biopsy were recruited. A full list of inclusion/exclusion criteria is provided in the Supplementary Information.
Patients initially received an oral dose of samuraciclib at Cycle 0, Day 1 for PK evaluation, followed by a 48-hour interval then continuous daily dosing for 21 days (Cycle 1). Dosing continued in 21-day cycles until the patient no longer gained clinical benefit or had intolerable toxicity. At least 3 evaluable patients in a cohort had to complete Cycle 1 before any dose escalation was considered.
As Module 1A was a ‘first time in human’ safety study, initial efficacy was evaluated as a secondary endpoint using the DCR, defined as the percentage of patients with a complete response (CR), PR or stabilization of disease at first on treatment RECIST assessment. To allow for the evaluation of longer-term benefit, Module 1B-1 and Module 2A used the CBR as a secondary endpoint, defined as the percentage of patients with CR or PR or stabilization of disease for at least 24 weeks between enrollment and disease progression or death due to any cause. In addition, the ORR was assessed, defined as the percentage of patients who had at least 1 objective response (CR or PR) prior to any evidence of progression. […] Statistical analyses of PFS using the Kaplan-Meier method were performed on the ITT population - defined as all enrolled patients. AEs were summarized from the Safety Population - defined as all patients who received at least 1 dose of samuraciclib - using the MedDRA system organ class (SOC), preferred term (PT), and graded according to CTCAE V5.0 (Supplementary Information). […]
In the Module 1A dose escalation cohort, patients initially received 1 oral dose of samuraciclib at Cycle 0, Day 1. In the absence of a dose-limiting toxicity (DLT) and following a washout period of at least 48 hours, patients could then enter Cycle 1 and receive samuraciclib daily. In the continued absence of a DLT, each patient could continue to receive samuraciclib daily for a minimum of 21 days (Cycle 1) and could continue to receive additional 21-day cycles of treatment until they were no longer gaining […]
treatment visit was conducted (within 3 days after the last samuraciclib dose). An end of study visit was conducted 28 to 35 days after the last dose of samuraciclib.
At least 3 and up to 6 evaluable patients were required for each dose cohort. At least 3 evaluable patients in a cohort had to complete at least one 21-day cycle of dosing before a Safety Review Committee (SRC), composed of study site investigators and Sponsor medical personnel, could review and initiate the next cohort and dose escalation. Within the initial cohorts there was a staggered interval, with subsequent patients not being dosed until the first patient within each cohort had completed 7 days of samuraciclib monotherapy.
Patient enrolment in the dose escalation cohort proceeded according to a Bayesian model rolling 6 […]
2. If 1 patient experienced a DLT in a group of 3 or more evaluable patients, then the cohort was expanded to include 6 evaluable patients. […]
dose escalation occurred.
3. If at least 2 patients experienced a DLT in a cohort of up to 6 patients, irrespective of the number of […]

## CC(C)c1cnn2c(NCc3ccccc3)cc(NC[C@H]3CCNC[C@@H]3O)nc12 [samuraciclib, Samuraciclib]
120 mg OD N=6
  TEAE: Upper respiratory tract infection: 5 (83.3) participants (%)
  TEAE: Urinary tract infection: 0 participants (%)
240 mg OD N=12
  TEAE: Upper respiratory tract infection: 1 (8.3) participants (%)
  TEAE: Urinary tract infection: 1 (8.3) participants (%)
360 mg OD N=12
  TEAE: Upper respiratory tract infection: 1 (8.3) participants (%)
  TEAE: Urinary tract infection: 1 (8.3) participants (%)
480 mg OD N=6
  TEAE: Upper respiratory tract infection: 0 participants (%)
  TEAE: Urinary tract infection: 1 (16.7) participants (%)
OD
  Lowest dose tested in humans that has demonstrated biological activity: 120 mg
  MBAD originally declared by the SRC: 240 mg
OD in a fasted state
  Non-tolerated dose: 480 mg
both, human, in vivo
  ALT increased; All AEs: 8 (18.2) patients (%)
  ALT increased; Grade ≥3: 1 (2.3) patients (%)
  AST increased; All AEs: 7 (15.9) patients (%)
  AST increased; Grade ≥3: 0 patients (%)
  Abdominal pain upper; All AEs: 4 (9.1) patients (%)
  Abdominal pain upper; Grade ≥3: 0 patients (%)
  Abdominal pain; All AEs: 12 (27.3) patients (%)
  Abdominal pain; Grade ≥3: 0 patients (%)
  Anemia; All AEs: 10 (22.7) patients (%)
  Anemia; Grade ≥3: 2 (4.5) patients (%)
  Any treatment-emergent AE; All AEs: 44 (100.0) patients (%)
  Any treatment-emergent AE; Grade ≥3: 21 (47.7) patients (%)
  Back pain; All AEs: 6 (13.6) patients (%)
  Back pain; Grade ≥3: 0 patients (%)
  Constipation; All AEs: 7 (15.9) patients (%)
  Constipation; Grade ≥3: 0 patients (%)
  Cough; All AEs: 8 (18.2) patients (%)
  Cough; Grade ≥3: 0 patients (%)
  Decreased appetite; All AEs: 9 (20.5) patients (%)
  Decreased appetite; Grade ≥3: 1 (2.3) patients (%)
  Diarrhea; All AEs: 38 (86.4) patients (%)
  Diarrhea; Grade ≥3: 2 (4.5) patients (%)
  Dizziness; All AEs: 2 (4.5) patients (%)
  Dizziness; Grade ≥3: 0 patients (%)
  Drug-related: ALT increased: 3 (6.8) participants (%)
  Drug-related: AST increased: 4 (9.1) participants (%)
  Drug-related: Abdominal pain: 8 (18.2) participants (%)
  Drug-related: Abdominal pain upper: 2 (4.5) participants (%)
  Drug-related: Anaemia: 3 (6.8) participants (%)
  Drug-related: Blood creatinine increased: 3 (6.8) participants (%)
  Drug-related: Decreased appetite: 8 (18.2) participants (%)
  Drug-related: Dehydration: 2 (4.5) participants (%)
  Drug-related: Diarrhoea: 36 (81.8) participants (%)
  Drug-related: Dry mouth: 2 (4.5) participants (%)
  Drug-related: Dyspepsia: 2 (4.5) participants (%)
  Drug-related: Dysphagia: 2 (4.5) participants (%)
  Drug-related: Fatigue: 14 (31.8) participants (%)
  Drug-related: Gastroesophageal reflux disease: 3 (6.8) participants (%)
  Drug-related: Mucosal inflammation: 2 (4.5) participants (%)
  Drug-related: Nausea: 34 (77.3) participants (%)
  Drug-related: Thrombocytopenia: 3 (6.8) participants (%)
  Drug-related: Vomiting: 35 (79.5) participants (%)
  Drug-related: Weight decreased: 4 (9.1) participants (%)
  Dysgeusia; All AEs: 1 (2.3) patients (%)
  Dysgeusia; Grade ≥3: 0 patients (%)
  Dysphagia; All AEs: 2 (4.5) patients (%)
  Dysphagia; Grade ≥3: 0 patients (%)
  Dyspnea; All AEs: 6 (13.6) patients (%)
  Dyspnea; Grade ≥3: 2 (4.5) patients (%)
  Fatigue; All AEs: 17 (38.6) patients (%)
  Fatigue; Grade ≥3: 0 patients (%)
  Grade ≥3: GGT increased: 2 (4.5) participants (%)
  Grade ≥3: Malignant neoplasm progression: 2 (4.5) participants (%)
  Grade ≥3: Pulmonary embolism: 2 (4.5) participants (%)
  Grade ≥3: Thrombocytopenia: 2 (4.5) participants (%)
  Headache; All AEs: 4 (9.1) patients (%)
  Headache; Grade ≥3: 0 patients (%)
  Hyperglycemia; All AEs: 1 (2.3) patients (%)
  Hyperglycemia; Grade ≥3: 0 patients (%)
  Hypocalcaemia; All AEs: 2 (4.5) patients (%)
  Hypocalcaemia; Grade ≥3: 0 patients (%)
  Hypokalaemia; All AEs: 0 patients (%)
  Hypokalaemia; Grade ≥3: 0 patients (%)
  Nausea; All AEs: 34 (77.3) patients (%)
  Nausea; Grade ≥3: 0 patients (%)
  Participants with any drug-related TEAE: 44 (100.0) participants (%)
  Rash; All AEs: 1 (2.3) patients (%)
  Rash; Grade ≥3: 0 patients (%)
  Stomatitis; All AEs: 1 (2.3) patients (%)
  Stomatitis; Grade ≥3: 0 patients (%)
  Taste disorder; All AEs: 0 patients (%)
  Taste disorder; Grade ≥3: 0 patients (%)
  Thrombocytopenia reported as Grade ≥3: 2 patients
  Upper respiratory tract infection; All AEs: 8 (18.2) patients (%)
  Upper respiratory tract infection; Grade ≥3: 0 patients (%)
  Urinary tract infection; All AEs: 5 (11.4) patients (%)
  Urinary tract infection; Grade ≥3: 0 patients (%)
  Vomiting; All AEs: 36 (81.8) patients (%)
  Vomiting; Grade ≥3: 1 (2.3) patients (%)
  Weight decreased; All AEs: 4 (9.1) patients (%)
  Weight decreased; Grade ≥3: 1 (2.3) patients (%)
both, human, in vivo, 21 days
  DLT: Decreased appetite: 1 (3.0) patients (%)
  DLT: Diarrhoea: 1 (3.0) patients (%)
  DLT: Gastroesophageal reflux disease: 1 (3.0) patients (%)
  DLT: Nausea: 1 (3.0) patients (%)
  DLT: Oesophagitis: 1 (3.0) patients (%)
  DLT: Stomatitis: 1 (3.0) patients (%)
  DLT: Thrombocytopenia: 1 (3.0) patients (%)
  DLT: Vomiting: 2 (6.1) patients (%)
  DLT: Weight decreased: 1 (3.0) patients (%)
  Patients with a dose-limiting toxicity: 3/6
  Patients with any DLT: 6 (18.2) patients (%)
both, human, in vivo, po
  Drug-related: Oral pain: 2 (4.5) participants (%)
During therapy, over the first 15 days then plateau, 240 mg OD and 360 mg OD
  Drop in platelet counts: ~20%
Once daily, monotherapy
  Maximum tolerated dose (MTD): 360 mg
